Patent publication US20110124607A1, “COMPOSITION FOR REGULATION CELLULAR SENESCENCE COMPRISING LYSOPHOSPHATIDIC ACID AND INHIBITOR OF ADENYLYL CYCLASE AS ACTIVE INGREDIENTS” (priority 2008, published 2011)

Legend:
Assay type in all cases: cell-based, human
cyclin D1 = assay: Immunofluorescent staining of cyclin D1; settings: 30 μM LPA
Protocol: (§1) FIG. 3 is a set of photographs illustrating the effect of LPA and ACI on the expressions of p21 and cyclin-D1 in young and senescent cells. Particularly, a-f, g-l and m-r are photographs illustrating that sub-cultured young cells (PD 20: Y) and senescent cells (PD 65: S) were serum-starved for 48 hours respectively, followed by treatment of LPA (a-f) and ACI (g-l) singly or together (m-r), and after culturing for 1, 2, and 4 days, the cells were fixed in 4% hydrogen peroxide, and stained with p21waf1/cip1 (A) and cyclin D1 (B) antibodies, followed by confirming immunofluorescence. At this time, nucleus was stained with DAPI.
Coverslips were placed on 24 well plate on which required amounts of young and senescent cells were distributed. Media were eliminated and the treated cells were washed with PBS twice. Then, the cells were fixed with 4% hydrogen peroxide. Non-specific protein staining was blocked using PBS containing 2% BSA (blocking serum). The cells were stained with primary antibody such as anti-AMPKα, anti-p-Thr172-AMPKα, anti-p-Ser485/491-AMPKα, anti-p53, anti-p-Ser15-p53, anti-p21waf1/cip1, and anti-cyclin D1. To stain nucleus, DAPI (1:1000) was also added, followed by observation under Zeiss LSM 510 laser scanning microscope. […]

p-Ser485/491-AMPKα = assay: Immuno-blotting of p-Ser485/491-AMPKα; settings: for p-Ser485/491-AMPKα expression after suppressing PKA: senescent cells pre-treated with 10 mM PKA inhibitor Rp-cAMP for one hour; for Ser485/491-AMPKα phosphorylation: 30 μM LPA, 300 μM ACI, up to day 4
Protocol: (A) and (B) are photographs illustrating the results of immuno-blotting. Precisely, sub-cultured young cells (PD 18: A) and senescent cells (PD 64: B) were treated with 30 μM of LPA […] and ACI singly or together, followed by further culture for 1, 2, and 4 days. Proteins were extracted from the cultured cells and the levels of AMPKα, p-Thr172-AMPKα, p-Ser485/491-AMPKα, p53, p-Ser15-p53, p21waf1/cip1 and β-actin were quantified by immuno-blotting.
(A) and (B) are photographs illustrating the results of immuno-blotting. Precisely, senescent cells (PD 64) were pre-treated with 10 mM of PKA inhibitor Rp-cAMP for one hour, followed by treatment with LPA(A) or ACI(B). After culturing the cells for 1, 2, and 4 days, proteins were extracted from the cultured cells and the levels of AMPKα, p-Thr172-AMPKα, p-Ser485/491-AMPKα, p53, p-Ser15-p53, p21waf1/cip1 and β-actin were quantified by immuno-blotting using 45 μg of the protein.
To analyse protein expression, human fibroblasts were lysed in cold lysis buffer (25 mM Hepes, pH 8.0, 150 mM NaCl, 1 mM EDTA, 1 mM Na3VO4, 1 mM NaF, 1% Triton X-100 and protease inhibitors), followed by centrifugation at 4° C. at 9,000 rpm for 10 minutes to obtain supernatant. Protein in the extract was quantified […]. SDS-PAGE electrophoresis was performed with equal amount of the protein (45 μg) to separate. The separated protein was transferred onto NC membrane from the electrophoresis gel. Non-specific protein binding was blocked by blocking the blot (transferred NC membrane) using TTBS […] containing 5% skim milk for one hour. Then, antigen-antibody reaction was induced with diluted primary antibody at 4° C. for overnight. The blot was washed with TTBS, followed by reaction with horseradish peroxidase conjugated anti-IgGs diluted in TTBS containing 5% skim milk (1:5000) at room temperature for one hour. The blot was washed again with TTBS to eliminate non-specific binding of antigen-antibody. Photographs were developed/printed on X-ray film (Kodak) using ECL kit (Pierce) containing peroxidase substrate to identify each protein.

p-Ser15-p53 = assay: Immuno-blotting of p-Ser15-p53; settings: for p-Ser15-p53 expression after suppressing PKA: senescent cells pre-treated with 10 mM PKA inhibitor Rp-cAMP for one hour; for p-Ser15-p53 expression: senescent cells, 30 μM LPA, 300 μM ACI, 10 mM AMPKI, 10 mM AICAR
Protocol: (A) and (B): Young and senescent cells were serum-starved for 2 days, followed by treatment with 10 mM of AMPK inhibitor […]) or 10 mM of AMPK activator AICAR(B) for 4 days. Proteins were extracted from the treated cells and the levels of AMPKα and p-Thr172-AMPKα, total p53, p-Ser15-p53 and […] measured by immuno-blotting. (C) and (D): Young cells (C) and senescent cells (D) were treated with 10 mM AMPKI or 10 mM AICAR and cultured for 4 days, followed by measurement of cell proliferation by cell counting. At this time, the experiment was repeated three times (p<0.001). (A) and (B) are photographs illustrating the results of immuno-blotting. Precisely, sub-cultured young cells (PD 18: A) and senescent cells (PD 64: B) were treated with 30 μM of LPA […] and ACI singly or together, followed by further culture for 1, 2, and 4 days. Proteins were extracted from the cultured cells and the levels of AMPKα, […] β-actin were quantified by immuno-blotting. (A) and (B) are photographs illustrating the results of immuno-blotting. Precisely, senescent cells (PD 64) were pre-treated with 10 mM of PKA inhibitor Rp-cAMP for one hour, followed by treatment with LPA(A) or ACI(B). After culturing the cells for 1, 2, and 4 days, proteins were extracted from the cultured cells and the levels of AMPKα, […] β-actin were quantified by immuno-blotting using 45 μg of the protein. To analyse protein expression, human fibroblasts were lysed in cold lysis buffer (25 mM Hepes, pH 8.0, 150 mM NaCl, 1 mM EDTA, 1 mM Na3VO4, 1 mM NaF, 1% Triton X-100 and protease inhibitors), followed by centrifugation at 4° C. at 9,000 rpm for 10 minutes to obtain supernatant. Protein in the extract was quantified […]. SDS-PAGE electrophoresis was performed with equal amount of the protein (45 μg) to separate. The separated protein was transferred onto NC membrane from the electrophoresis gel. Non-specific protein binding was blocked by blocking the blot (transferred NC membrane) using TTBS […] containing 5% skim milk for one hour. Then, antigen-antibody reaction was induced with diluted primary antibody at 4° C. for overnight. The blot was washed with TTBS, followed by reaction with horseradish peroxidase conjugated anti-IgGs diluted in TTBS containing 5% skim milk (1:5000) at room temperature for one hour. The blot was washed again with TTBS to eliminate non-specific binding of antigen-antibody. Photographs were developed/printed on X-ray film (Kodak) using ECL kit (Pierce) containing peroxidase substrate to identify each protein.

p21waf1/cip1 = assay: Immunofluorescent staining of p21; settings: 30 μM LPA, 300 μM ACI, day 2 and day 4
Protocol: as §1
Coverslips were placed on 24 well plate on which required amounts of young and senescent cells were distributed. Media were eliminated and the treated cells were washed with PBS twice. Then, the cells were fixed with 4% hydrogen peroxide. Non-specific protein staining was blocked using PBS containing 2% BSA (blocking serum). The cells were stained with primary antibody such as anti-AMPKα, anti-p-Thr172-AMPKα, anti-p-Ser485/491-AMPKα, anti-p53, anti-p-Ser15-p53, anti-p21waf1/cip1, and anti-cyclin D1. To stain nucleus, DAPI (1:1000) was also added, followed by observation under Zeiss LSM 510 laser scanning microscope.
Cells were treated with 30 μM of LPA, 300 μM of ACI or LPA+ACI for 4 days, followed by immunofluorescence to investigate p21 and cyclin D1 expressions (FIG. 3A). As a result, when young cells were treated with ACI alone or LPA+ACI, p21 expression was increased on day 2 and day 4 (FIG. 3A).

Compound: Nc1ncnc2c1ncn2C1CCCO1 (stereo not drawn) [ACI, 9-(tetrahydro-2′-furyl)adenine]
- cyclin D1 expression (immunofluorescence) (cyclin D1; senescent cells, 300 μM ACI): reduced
- p-Ser485/491-AMPKα expression after suppressing PKA (p-Ser485/491-AMPKα): not changed
- Ser485/491-AMPKα phosphorylation (p-Ser485/491-AMPKα; senescent cells): did not affect
- Ser485/491-AMPKα phosphorylation (p-Ser485/491-AMPKα; young cells): reduced
- p-Ser15-p53 expression after suppressing PKA (p-Ser15-p53): not changed
- p-Ser15-p53 expression (p-Ser15-p53): reduced
- p21 expression (immunofluorescence) (p21waf1/cip1; senescent cells): reduced
- p21 expression (immunofluorescence) (p21waf1/cip1; young cells): increased

Compound: lysophosphatidic acid [LPA]
- cyclin D1 expression (immunofluorescence) (cyclin D1; young cells): decrease
- p-Ser485/491-AMPKα expression after suppressing PKA (p-Ser485/491-AMPKα): not changed at all
- Ser485/491-AMPKα phosphorylation (p-Ser485/491-AMPKα; senescent cells): gradually increased
- Ser485/491-AMPKα phosphorylation (p-Ser485/491-AMPKα; young cells): reduced
- p-Ser15-p53 expression after suppressing PKA (p-Ser15-p53): not changed at all
- p-Ser15-p53 expression (p-Ser15-p53): reduced
- p21 expression (immunofluorescence) (p21waf1/cip1; young cells): decrease
